Test results as given in ChEMBL document CHEMBL4831503, “Design, synthesis, in vitro and in vivo anti-respiratory syncytial virus (RSV) activity of novel oxizine fused benzimidazole derivatives” (Eur J Med Chem, 2021).
pEC50: −log10 of the molar value. The source made the active and inactive calls. The calls are words filed in the database; no cut-off is given here.

Key:
[1] = Cytotoxicity against human HEp-2 cells assessed as reduction in cell viability measured after 60 hrs by MTT assay; format: cell-based
[2] = test system: Respiratory syncytial virus; test: Antiviral activity against Respiratory syncytial virus infected in human HEp-2 cells incubated for 60 hrs by MTT assay; format: functional, organism-based; settings: HEp-2, 60 h
[3] = Selectivity index, ratio of CC50 for human HEp-2 cells to EC50 for Respiratory syncytial virus infected in human HEp-2 cells; format: toxicity, cell-based; settings: read-out: Selectivity Index
[4] = test system: Respiratory syncytial virus; test: Antiviral activity against RSV infected in BALB/c mouse assessed as downregulation of IL-10 expression in lung tissue infected with RSV at 50 mg/kg/day measured after 2 to 6 days post infection by RT-PCR analysis; format: functional, organism-based; settings: time 2-6 day
[5] = test system: Respiratory syncytial virus; test: Inhibition of RSV induced apoptosis in human HEp-2 cells assessed as early apoptotic cells at 25 uM measured after 60 hrs by Annexin V-FITC/PI staining based flow cytometry analysis (reference value: 10.3%); format: functional; set-up: scale not given: the % may be the effect or the level left
[6] = test system: Respiratory syncytial virus; test: Inhibition of RSV induced apoptosis in human HEp-2 cells assessed as late apoptotic cells at 25 uM measured after 60 hrs by Annexin V-FITC/PI staining based flow cytometry analysis (reference value: 20.2%); format: functional; set-up: scale not given: the % may be the effect or the level left
[7] = test system: Respiratory syncytial virus; test: Inhibition of RSV induced apoptosis in human HEp-2 cells assessed as reduction in PARP cleavage measured after 48 hrs by Western blot analysis; format: functional, organism-based
[8] = test system: Respiratory syncytial virus; test: Inhibition of RSV induced apoptosis in human HEp-2 cells assessed as reduction in cleaved caspase-7 expression measured after 48 hrs by Western blot analysis; format: functional, organism-based
[9] = test system: Respiratory syncytial virus; test: Inhibition of RSV induced apoptosis in human HEp-2 cells assessed as reduction in cleaved caspase-9 expression measured after 48 hrs by Western blot analysis; format: functional, organism-based
[10] = test system: Respiratory syncytial virus; test: Inhibition of RSV induced apoptosis in human HEp-2 cells assessed as reduction in cleaved caspase-3 expression measured after 60 hrs by Western blot analysis; format: functional, organism-based
[11] = Inhibition of RSV induced ROS production in human HEp-2 cells assessed as reduction in accumulation of ROS-positive cells at 25 uM measured after 36 hrs by DCHF-DA staining based flow cytometry analysis (reference value: 82.2%); format: functional, Respiratory syncytial virus; set-up: scale not given: the % may be the effect or the level left
[12] = test system: Respiratory syncytial virus; test: Antiviral activity against RSV infected in human HEp-2 cells assessed as downregulation of NF-kappaB expression at 25 uM treated 48 hpi and measured after 48 hrs by Western blot analysis; format: functional, organism-based
[13] = test system: Respiratory syncytial virus; test: Antiviral activity against RSV infected in human HEp-2 cells assessed as downregulation of RIG-1 expression at 25 uM treated 48 hpi and measured after 48 hrs by Western blot analysis; format: functional, organism-based
[14] = Toxicity in BALB/c mouse infected with RSV-Long assessed as body weight loss at 50 mg/kg/day administered via gastric gavage once daily for 6 days; format: organism-based; settings: in vivo, po, 144 h, time 6 day
[15] = test system: Respiratory syncytial virus; test: Antiviral activity against RSV Long infected in BALB/c mouse assessed as reduction in lung tissue damage by measuring lung index at 50 mg/kg/day measured after 4 to 6 days of virus infection; format: functional, organism-based; settings: time 4-6 day
[16] = test system: Respiratory syncytial virus; test: Antiviral activity against RSV Long infected in BALB/c mouse assessed as improvement in lung congestion at 25 to 100 mg/kg/day observed on day 6 after infection by H and E staining based microscopic analysis; format: functional, organism-based; settings: dose 25-100 mg/kg/day, time 6.0 day
[17] = test system: Respiratory syncytial virus; test: Antiviral activity against RSV Long infected in BALB/c mouse assessed as inhibition of alveolar infiltrates accumulation at 50 mg/kg/day observed on day 6 after infection by H and E staining based microscopic analysis; format: functional, organism-based; settings: time 6.0 day
[18] = test system: Respiratory syncytial virus; test: Antiviral activity against RSV infected in BALB/c mouse assessed as inhibition of viral replication by measuring RSV-M gene expression in lung after 2 to 6 days post infection by RT-PCR analysis; format: functional, organism-based; settings: time 2-6 day
[19] = test system: Respiratory syncytial virus; test: Antiviral activity against RSV infected in BALB/c mouse assessed as downregulation of RIG-1 expression in lung tissue infected with RSV at 50 mg/kg/day measured after 2 days post infection by RT-PCR analysis; format: functional, organism-based; settings: time 2.0 day
[20] = test system: Respiratory syncytial virus; test: Antiviral activity against RSV infected in BALB/c mouse assessed as downregulation of IRF3 expression in lung tissue infected with RSV at 50 mg/kg/day measured after 2 to 4 days post infection by RT-PCR analysis; format: functional, organism-based; settings: time 2-4 day
[21] = test system: Respiratory syncytial virus; test: Antiviral activity against RSV infected in BALB/c mouse assessed as downregulation of TLR3 expression in lung tissue infected with RSV at 50 mg/kg/day measured after 2 to 6 days post infection by RT-PCR analysis; format: functional, organism-based; settings: time 2-6 day
[22] = test system: Respiratory syncytial virus; test: Antiviral activity against RSV infected in BALB/c mouse assessed as downregulation of IL-6 expression in lung tissue infected with RSV at 50 mg/kg/day measured after 2 days post infection by RT-PCR analysis; format: functional, organism-based; settings: time 2.0 day
[23] = test system: Respiratory syncytial virus; test: Antiviral activity against RSV infected in BALB/c mouse assessed as downregulation of IL-8 expression in lung tissue infected with RSV at 50 mg/kg/day measured after 2 to 6 days post infection by RT-PCR analysis; format: functional, organism-based; settings: time 2-6 day
[24] = test system: Respiratory syncytial virus; test: Antiviral activity against RSV infected in BALB/c mouse assessed as downregulation of iNOS expression in lung tissue infected with RSV at 50 mg/kg/day measured after 2 to 6 days post infection by RT-PCR analysis; format: functional, organism-based; settings: time 2-6 day
[25] = test system: Respiratory syncytial virus; test: Antiviral activity against RSV infected in BALB/c mouse assessed as downregulation of TNF-alpha expression in lung tissue infected with RSV at 50 mg/kg/day measured after 2 to 6 days post infection by RT-PCR analysis; format: functional, organism-based; settings: time 2-6 day

Molecule `COc1c(Br)cc2c(nc3n2[C@H]2OC[C@@H](O)[C@H]2OC3)c1Br` has a CC50 at 60 h [1] of 259 µM.
Work on `Cc1ccc(S(=O)(=O)O[C@@H]2CO[C@H]3[C@@H]2OCc2nc4cc(Br)c(C)c(Br)c4n23)cc1` yielded a pEC50 [2] of 5.08, a CC50 at 60 h [1] of 88.6 µM and a selectivity ratio [3] of 10.7.
`Cc1cc2nc3n(c2cc1C)[C@H]1OC[C@@H](O)[C@H]1OC3` showed a CC50 at 60 h [1] of 492 µM.
For `O[C@@H]1CO[C@H]2[C@@H]1OCc1nc3cc(Br)cc(Cl)c3n12`, the pEC50 [2] was 4.06 and the CC50 at 60 h [1] was > 800 µM.
`Cc1c(Br)cc2nc3n(c2c1Br)[C@H]1OC[C@@H](OCc2ccccc2)[C@H]1OC3` gave a pEC50 [2] of 4.35, a CC50 at 60 h [1] of 115 µM and a selectivity ratio [3] of 2.59. The Activity [4] was “Active”.
Molecule `O[C@@H]1CO[C@H]2[C@@H]1OCc1nc3cc(Br)c(Br)cc3n12` has a pEC50 [2] of 4.50, a CC50 at 60 h [1] of 181 µM and a selectivity ratio [3] of 5.67.
With `O[C@@H]1CO[C@H]2[C@@H]1OCc1nc3cc(F)c(F)cc3n12` the pEC50 [2] was < 3.40 and the CC50 at 60 h [1] was 512 µM.
Work on `Cc1ccc(S(=O)(=O)O[C@@H]2CO[C@H]3[C@@H]2OCc2nc4cc(Br)c(Br)cc4n23)cc1` yielded a pEC50 [2] of 4.19, a CC50 at 60 h [1] of 87.5 µM and a selectivity ratio [3] of 1.35.
With `COc1ccc2c(c1)nc1n2[C@H]2OC[C@@H](O)[C@H]2OC1` the CC50 at 60 h [1] was > 800 µM.
`COc1ccc2c(nc3n2[C@H]2OC[C@@H](O)[C@H]2OC3)c1N` gave a pEC50 [2] of 4.95, a CC50 at 60 h [1] of 109 µM and a selectivity ratio [3] of 9.66.
`Cc1ccc(S(=O)(=O)O[C@@H]2CO[C@H]3[C@@H]2OCc2nc4c(Br)c(C)c(Br)cc4n23)cc1` showed a pEC50 [2] of 5.80, a CC50 at 60 h [1] of 8.94 µM and a selectivity ratio [3] of 5.68.
Work on `Cc1c(Br)cc2nc3n(c2c1Br)[C@H]1OC[C@H](N=[N+]=[N-])[C@H]1OC3` yielded a CC50 at 60 h [1] of 21.4 µM.
`Cc1c(Br)cc2nc3n(c2c1Br)[C@H]1OC[C@@H](OS(C)(=O)=O)[C@H]1OC3` gave a pEC50 [2] of 5.22, a CC50 at 60 h [1] of 23.7 µM and a selectivity ratio [3] of 3.96.
`CS(=O)(=O)O[C@@H]1CO[C@H]2[C@@H]1OCc1nc3cc(Br)c(Br)cc3n12` showed a pEC50 [2] of 4.06, a CC50 at 60 h [1] of 99.5 µM and a selectivity ratio [3] of 1.13.
In the case of `[N-]=[N+]=N[C@H]1CO[C@H]2[C@@H]1OCc1nc3cc(Br)c(Br)cc3n12`, the CC50 at 60 h [1] was 77.4 µM.
For `O[C@@H]1CO[C@H]2[C@@H]1OCc1nc3cc(Cl)c(Cl)cc3n12`, the CC50 at 60 h [1] was 238 µM.
With `O[C@@H]1CO[C@H]2[C@@H]1OCc1nc3ccccc3n12` the CC50 at 60 h [1] was 564 µM.
`COc1c(Cl)cc2c(nc3n2[C@H]2OC[C@@H](O)[C@H]2OC3)c1Cl` gave a CC50 at 60 h [1] of 411 µM.
`Cc1c(Br)cc2c(nc3n2[C@H]2OC[C@@H](OCc4ccccc4)[C@H]2OC3)c1Br` showed a CC50 at 60 h [1] of 25.6 µM.
Molecule `COc1ccc2c(c1)nc1n2C[C@@H]([C@H](O)CO)OC1` has a CC50 at 60 h [1] of 366 µM.
With `OC[C@@H](O)[C@@H]1Cn2c(nc3cc(F)c(F)cc32)CO1` the pEC50 [2] was 4.19, the CC50 at 60 h [1] was 653 µM and the selectivity ratio [3] was 10.
Molecule `Cc1cc2nc3n(c2cc1C)C[C@@H]([C@H](O)CO)OC3` has a CC50 at 60 h [1] of 574 µM.
In the case of `OC[C@@H](O)[C@@H]1Cn2c(nc3ccccc32)CO1`, the CC50 at 60 h [1] was > 800 µM.
In the case of `Cc1c(Br)cc2c(nc3n2[C@H]2OC[C@H](N=[N+]=[N-])[C@H]2OC3)c1Br`, the pEC50 [2] was 4.88, the CC50 at 60 h [1] was 33.1 µM and the selectivity ratio [3] was 2.54.
For `COc1ccc2c(nc3n2[C@H]2OC[C@@H](O)[C@H]2OC3)c1[N+](=O)[O-]`, the CC50 at 60 h [1] was 468 µM.
`NC(=O)c1ncn([C@@H]2O[C@H](CO)[C@@H](O)[C@H]2O)n1` [RIBAVIRIN] gave a pEC50 [2] of 4.73, a CC50 at 60 h [1] of 418 µM and a selectivity ratio [3] of 22.6. The Activity [5] was 0.3%, the Activity [6] was 7.6% and the inhibition [7] was “Active”. For the same molecule, the inhibition [8] was “Active”, the inhibition [9] was “Active” and the inhibition [10] was “Active”. For the same molecule, the Activity [11] was 62.7%, the Activity [12] was “Active” and the Activity [13] was “Active”. The Activity [14] was “Toxic”, the Activity [15] was “Active” and the Activity [16] was “Active”. For the same molecule, the Activity [17] was “Active”, the Activity [18] was “Active” and the Activity [19] was “inactive”. For the same molecule, the Activity [20] was “Active”, the Activity [21] was “Active” and the Activity [22] was “Active”. The Activity [23] was “Active”, the Activity [4] was “Active” and the Activity [24] was “Active”. The Activity [25] was “Active”.
For `Cc1c(Br)cc2c(nc3n2[C@H]2OC[C@@H](O)[C@H]2OC3)c1Br`, the CC50 at 60 h [1] was 34.3 µM.
Molecule `Cc1c(Br)cc2c(nc3n2[C@H]2OC[C@@H](OS(C)(=O)=O)[C@H]2OC3)c1Br` has a CC50 at 60 h [1] of 15.6 µM.
